Here are results for 25 compounds from US20160130278A1 (TAISHO PHARMACEUTICAL CO., LTD, priority 2013, published 2016).

This assay addresses T1, human type 1 glycine transporter (GlyT1) (Homo sapiens, UniProt P48067).
T1 construct: T98G cells (glioma cells) expressing human type 1 glycine transporter (GlyT1) were used
T1 sequence (P48067 1-706): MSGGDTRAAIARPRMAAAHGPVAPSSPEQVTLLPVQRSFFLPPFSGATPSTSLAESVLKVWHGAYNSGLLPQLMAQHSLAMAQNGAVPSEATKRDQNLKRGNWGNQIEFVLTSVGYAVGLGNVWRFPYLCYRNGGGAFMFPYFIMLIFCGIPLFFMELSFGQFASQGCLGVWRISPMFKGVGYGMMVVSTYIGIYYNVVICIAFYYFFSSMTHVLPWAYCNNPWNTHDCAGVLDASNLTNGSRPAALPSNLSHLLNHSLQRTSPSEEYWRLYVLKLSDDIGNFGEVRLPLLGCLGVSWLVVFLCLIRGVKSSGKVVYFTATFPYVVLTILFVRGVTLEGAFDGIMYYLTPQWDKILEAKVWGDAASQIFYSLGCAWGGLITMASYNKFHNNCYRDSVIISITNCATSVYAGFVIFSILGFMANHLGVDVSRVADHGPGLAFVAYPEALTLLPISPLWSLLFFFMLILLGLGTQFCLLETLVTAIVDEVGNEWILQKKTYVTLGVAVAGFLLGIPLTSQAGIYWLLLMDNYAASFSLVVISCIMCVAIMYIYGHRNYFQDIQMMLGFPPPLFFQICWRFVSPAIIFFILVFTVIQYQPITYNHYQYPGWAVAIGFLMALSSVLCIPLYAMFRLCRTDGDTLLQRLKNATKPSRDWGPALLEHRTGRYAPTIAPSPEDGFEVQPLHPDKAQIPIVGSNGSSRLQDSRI
The assay is described as follows: Glycine uptake inhibition experiment ([3H]glycine uptake). Format: cell-based. As to conditions: GlyT1. The procedure, abridged: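 T98G glioma cells expressing human GlyT1 were pretreated 10 min with compound in HEPES buffer pH 7.4 (0.2% BSA), then incubated with compound plus 250 nM final [3H]glycine for 15 min at room temperature. Intracellular radioactivity was counted after NaOH lysis; 10 μM ALX5407 defined non-specific uptake. IC50 came from 10^−9–10^−5 M curves.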
By IC50 is commonly meant the concentration needed to halve the response being measured. Low values mean greater potency, high ones weaker potency. `O=C(NC(c1cccnc1Cl)C1(O)CCC(F)(F)CC1)c1cc(C(F)(F)F)ncc1Cl` (single isomer, unassigned) [Compound 342, 5-chloro-N-[(2-chloropyridin-3-yl)(4,4-difluoro-1-hydroxycyclohexyl)methyl]-2-(trifluoromethyl)pyridine-4-carboxamide] had an IC50 of 1200 nM. On to `O=C(NC(c1cccnc1Cl)C1(O)CCC(F)(F)CC1)c1ccc(C(F)(F)F)nc1Cl` (single isomer, unassigned) [Compound 344, 2-chloro-N-[(2-chloropyridin-3-yl)(4,4-difluroo-1-hydroxycyclohexyl)methyl]-6-(trifluoromethyl)pyridine-3-carboxamide], for which half-maximal inhibition (IC50) was put at 2300 nM.

In turn, `O=C(NC(c1cc(Cl)ccn1)C1(O)CCC(F)(F)CC1)c1nccc(C(F)(F)F)c1Cl` (single isomer, unassigned) [Compound 345, 3-chloro-N-[(4-chloropyridin-2-yl)(4,4-difluoro-1-hydroxycyclohexyl)methyl]-4-(trifluoromethyl)pyridine-2-carboxamide] returned a half-maximal inhibitory concentration (IC50) of 270 nM. With `O=C(NC(c1cc(Cl)ccn1)C1(O)CCC(F)(F)CC1)c1ccnc(C(F)(F)F)c1Cl` (single isomer, unassigned) [Compound 346, 3-chloro-N-[(4-chloropyridin-2-yl)(4,4-difluoro-1-hydroxycyclohexyl)methyl]-2-(trifluoromethyl)pyridine-4-carboxamide], the IC50 came out at 360 nM. The compound `O=C(NC(c1cccc(Cl)n1)C1(O)CCC(F)(F)CC1)c1ccnc(C(F)(F)F)c1Cl` (single isomer, unassigned) [Compound 347, 3-chloro-N-[(6-chloropyridin-2-yl)(4,4-difluoro-1-hydroxycyclohexyl)methyl]-2-(trifluoromethyl)pyridine-4-carboxamide] yielded an IC50 of 380 nM. For `O=C(NC(c1cc(Cl)ccn1)C1(O)CCC(F)(F)CC1)c1cc(C(F)(F)F)ncc1Cl` (single isomer, unassigned) [Compound 348, 5-chloro-N-[(4-chloropyridin-2-yl)(4,4-difluoro-1-hydroxycyclohexyl)methyl]-2-(trifluoromethyl)pyridine-4-carboxamide], inhibition was half-maximal at 490 nM (IC50). Regarding `O=C(NC(c1cc(Cl)ccn1)C1(O)CCC(F)(F)CC1)c1nccc2ccccc12` (single isomer, unassigned) [Compound 349, N-[(4-chloropyridin-2-yl)(4,4-difluoro-1-hydroxycyclohexyl)methyl]isoquinoline-1-carboxamide], 1100 nM corresponded to half-maximal inhibition (IC50). Next, `O=C(NC(c1cc(Cl)ccn1)C1(O)CCC(F)(F)CC1)c1ccc(C(F)(F)F)nc1Cl` (single isomer, unassigned) [Compound 350, 2-chloro-N-[(4-chloropyridin-2-yl)(4,4-difluoro-1-hydroxycyclohexyl)methyl]-6-(trifluoromethyl)pyridine-3-carboxamide]: 620 nM; `O=C(NC(c1cc(Cl)ccn1)C1(O)CCC(F)(F)CC1)c1cccc(C(F)(F)F)c1Cl` (single isomer, unassigned) [Compound 351, 2-chloro-N-[(4-chloropyridin-2-yl)(4,4-difluoro-1-hydroxycyclohexyl)methyl]-3-(trifluoromethyl)benzamide]: 150 nM; `O=C(NC(c1cccc(Cl)n1)C1(O)CCC(F)(F)CC1)c1cccc(C(F)(F)F)c1Cl` (single isomer, unassigned) [Compound 352, 2-chloro-N-[(6-chloropyridin-2-yl)(4,4-difluoro-1-hydroxycyclohexyl)methyl]-3-(trifluoromethyl)benzamide]: 150 nM. `O=C(NC(c1cccc(Cl)n1)C1(O)CCC(F)(F)CC1)c1cc(C(F)(F)F)ncc1Cl` (single isomer, unassigned) [Compound 353, 5-chloro-N-[(6-chloropyridin-2-yl)(4,4-difluoro-1-hydroxycyclohexyl)methyl]-2-(trifluoromethyl)pyridine-4-carboxamide]: the IC50 was found to be 150 nM. For `O=C(NC(c1cccc(Cl)n1)C1(O)CCC(F)(F)CC1)c1cc(C(F)(F)F)cnc1Cl` (single isomer, unassigned) [Compound 354, 2-chloro-N-[(6-chloropyridin-2-yl)(4,4-difluoro-1-hydroxycyclohexyl)methyl]-5-(trifluoromethyl)pyridine-3-carboxamide], the 50% inhibitory concentration (IC50) was found to be 220 nM. Next, `O=C(NC(c1cccc(Cl)n1)C1(O)CCC(F)(F)CC1)c1nccc2ccccc12` (single isomer, unassigned) [Compound 355, N-[(6-chloropyridin-2-yl)(4,4-difluoro-1-hydroxycyclohexyl)methyl]isoquinoline-1-carboxamide]: 130 nM; `O=C(NC(c1cccc(Cl)n1)C1(O)CCC(F)(F)CC1)c1ccc(C(F)(F)F)nc1Cl` (single isomer, unassigned) [Compound 356, 2-chloro-N-[(6-chloropyridin-2-yl)(4,4-difluoro-1-hydroxycyclohexyl)methyl]-6-(trifluoromethyl)pyridine-3-carboxamide]: 250 nM. Next, `O=C(NC(c1cccnc1Cl)C1(O)CCC(F)(F)CC1)c1cccc(C(F)(F)F)c1Cl` (single isomer, unassigned) [Compound 357, 2-chloro-N-[(2-chloropyridin-3-yl)(4,4-difluoro-1-hydroxycyclohexyl)methyl]-3-(trifluoromethyl)benzamide]: 330 nM. With `O=C(NC(c1cccc(F)n1)C1(O)CCC(F)(F)CC1)c1nccc(C(F)(F)F)c1Cl` (single isomer, unassigned) [Compound 358, 3-chloro-N-[(4,4-difluoro-1-hydroxycyclohexyl)(6-fluoropyridin-2-yl)methyl]-4-(trifluoromethyl)pyridine-2-carboxamide], the concentration for half-maximal inhibition (IC50) came out at 150 nM.

Regarding `O=C(NC(c1cccc(F)n1)C1(O)CCC(F)(F)CC1)c1ccnc(C(F)(F)F)c1Cl` (single isomer, unassigned) [Compound 359, 3-chloro-N-[(4,4-difluoro-1-hydroxycyclohexyl)(6-fluoropyridin-2-yl)methyl]-2-(trifluoromethyl)pyridine-4-carboxamide], the midpoint of inhibition, the IC50, lay at 250 nM. For the compound `O=C(NC(c1cc(Cl)ccn1)C1(O)CCC(F)(F)CC1)c1cc(C(F)(F)F)cnc1Cl` (single isomer, unassigned) [Compound 360, 2-chloro-N-[(4-chloropyridin-2-yl)(4,4-difluoro-1-hydroxycyclohexyl)methyl]-5-(trifluoromethyl)pyridine-3-carboxamide], half-maximal inhibition (IC50) was put at 520 nM.

Compound `O=C(NC(c1ncccc1Cl)[C@]1(O)CC[C@@H](F)CC1)c1nccc(C(F)(F)F)c1Cl` (single isomer, unassigned) [Compound 361, 3-chloro-N-[(3-chloropyridin-2-yl)(cis-4-fluoro-1-hydroxycyclohexyl)methyl]-4-(trifluoromethyl)pyridine-2-carboxamide] returned a concentration for half-maximal inhibition (IC50) of 300 nM.

Take `O=C(NC(c1cccc(Cl)n1)[C@]1(O)CC[C@@H](F)CC1)c1cc(C(F)(F)F)ccc1Cl` (single isomer, unassigned) [Compound 362]: 190 nM corresponded to half-maximal inhibition (IC50). The compound `O=C(NC(c1cccc(Cl)n1)[C@]1(O)CC[C@@H](F)CC1)c1ccc(C(F)(F)F)cc1Cl` (single isomer, unassigned) [Compound 363, 2-chloro-N-[(6-chloropyridin-2-yl)(cis-4-fluoro-1-hydroxycyclohexyl)methyl]-4-(trifluoromethyl)benzamide] had a half-inhibitory concentration (IC50) of 240 nM.

Consider `CS(=O)(=O)c1ccc(Cl)cc1C(=O)NC(c1cccc(F)c1Cl)[C@]1(O)CC[C@@H](F)CC1` (single isomer, unassigned) [Compound 364, 5-chloro-N-[(2-chloro-3-fluorophenyl)(cis-4-fluoro-1-hydroxycyclohexyl)methyl]-2-(methylsulfonyl)benzamide], for which the 50% inhibitory concentration (IC50) came to 530 nM. `O=C(NC(c1cccc(F)c1Cl)[C@]1(O)CC[C@@H](F)CC1)c1ccccc1C1CC1` (single isomer, unassigned) [Compound 365, N-[(2-chloro-3-fluorophenyl)(cis-4-fluoro-1-hydroxycyclohexyl)methyl]-2-cyclopropylbenzamide] yielded an IC50 of 2800 nM. In the case of `O=C(NC(c1ccccc1Cl)[C@]1(O)CC[C@@H](F)CC1)c1cc(C(F)(F)F)ncc1Cl` (single isomer, unassigned) [Compound 366, 5-chloro-N-[(2-chlorophenyl)(cis-4-fluoro-1-hydroxycyclohexyl)methyl]-2-(trifluoromethyl)pyridine-4-carboxamide] it was 320 nM; in that of `O=C(NC(c1ccccc1Cl)[C@]1(O)CC[C@@H](F)CC1)c1cc(C(F)(F)F)cnc1Cl` (single isomer, unassigned) [Compound 367, 2-chloro-N-[(2-chlorophenyl)(cis-4-fluoro-1-hydroxycyclohexyl)methyl]-5-(trifluoromethyl)pyridine-3-carboxamide], 380 nM.
